{"source": "ChEMBL document CHEMBL5385929", "about": "“Tabersonine Enhances Olaparib Sensitivity through FHL1-Mediated Epithelial-Mesenchymal Transition in an Ovarian Tumor” (J Nat Prod, 2024)", "key": {"[1]": {"test": "Toxicity in BALB/c mouse xenografted with human A2780 cells assessed as effect on body weight at 15 mg/kg, ip co-administered with olaparib for 2 weeks", "format": "organism-based", "conditions": "in vivo, 336 h"}, "A2780 [2]": {"test_system": "A2780", "test": "Potentiation of olaparib sensitivity in human A2780 cells assessed as downregulation of EMT signaling by measuring downregulation of N-cadherin protein expression at 10 uM in presence of olaparib by western blot analysis", "format": "functional, cell-based"}, "A2780 [3]": {"test_system": "A2780", "test": "Potentiation of olaparib-induced antitumor activity against shFHL1-1 RNA-transfected human A2780 cells xenografted in BALB/c mouse assessed as decrease in tumor weight at 15 mg/kg, ip co-administered with olaparib for 2 weeks", "format": "functional, organism-based"}, "A2780 [4]": {"test_system": "A2780", "test": "Potentiation of olaparib sensitivity in human A2780 cells transfected with shFHL1-2 RNA assessed as inhibition of cell invasion at 10 uM measured after 48 hrs in presence of olaparib by Transwell assay", "format": "functional, cell-based"}, "SK-OV-3 [5]": {"test_system": "SK-OV-3", "test": "Potentiation of olaparib sensitivity in human SK-OV-3 cells assessed as downregulation of EMT signaling by measuring upregulation of E-cadherin protein expression at 10 uM in presence of olaparib by western blot analysis", "format": "functional, cell-based"}, "SK-OV-3 [6]": {"test_system": "SK-OV-3", "test": "Downregulation of EMT signalling in human SK-OV-3 cells assessed as upregulation of E-cadherin protein expression at 10 uM by western blot analysis", "format": "functional, cell-based"}, "A2780 [7]": {"test_system": "A2780", "test": "Inhibition of cell invasion in human A2780 cells at 10 uM measured after 48 hrs by Transwell assay", "format": "functional, cell-based"}, "SK-OV-3 [8]": {"test_system": "SK-OV-3", "test": "Potentiation of olaparib sensitivity in human SK-OV-3 cells assessed as induction of DNA damage response by measuring increase in tail moment at 10 uM measured after 48 hrs in presence of olaparib by alkaline comet assay", "format": "functional, cell-based"}, "Mus musculus [9]": {"test_system": "Mus musculus", "test": "Potentiation of olaparib sensitivity in BALB/c mouse xenografted with shFHL1-1 RNA-transfected human A2780 cells assessed as downregulation of vimentin protein expression in tumor at 15 mg/kg, ip co-administered with olaparib for 2 weeks by western blot analysis", "format": "functional, organism-based"}, "[10]": {"test": "Toxicity in BALB/c mouse xenografted with human A2780 cells assessed as animal's death at 30 mg/kg, ip administered every other day and measured on day 6", "format": "organism-based", "conditions": "in vivo, 144 h, time 6 day"}, "A2780 [11]": {"test_system": "A2780", "test": "Potentiation of olaparib sensitivity in human A2780 cells transfected with shFLH1-1 RNA assessed as downregulation of EMT signaling by measuring vimentin protein expression at 10 uM in presence of olaparib by western blot analysis", "format": "functional, cell-based"}, "SK-OV-3 [12]": {"test_system": "SK-OV-3", "test": "Potentiation of olaparib sensitivity in human SK-OV-3 cells transfected with shFLH1-1 RNA assessed as downregulation of EMT signaling by measuring N-cadherin protein expression at 10 uM in presence of olaparib by western blot analysis", "format": "functional, cell-based"}, "A2780 [13]": {"test_system": "A2780", "test": "Inhibition of cell invasion in human A2780 cells transfected with shFHL1-1 RNA at 10 uM measured after 48 hrs by Transwell assay", "format": "functional, cell-based"}, "A2780 [14]": {"test_system": "A2780", "test": "Downregulation of EMT signalling in human A2780 cells transfected with shFHL1-2 RNA assessed as E-cadherin protein expression at 10 uM by western blot analysis", "format": "functional, cell-based"}, "Mus musculus [15]": {"test_system": "Mus musculus", "test": "Potentiation of olaparib sensitivity in BALB/c mouse xenografted with shNC RNA-transfected human A2780 cells assessed as downregulation of vimentin protein expression in tumor at 15 mg/kg, ip co-administered with olaparib for 2 weeks by western blot analysis", "format": "functional, organism-based"}, "A2780 [16]": {"test_system": "A2780", "test": "Downregulation of EMT signalling in human A2780 cells assessed as downregulation of N-cadherin protein expression at 10 uM by western blot analysis", "format": "functional, cell-based"}, "SK-OV-3 [17]": {"test_system": "SK-OV-3", "test": "Potentiation of olaparib sensitivity in human SK-OV-3 cells transfected with shFLH1-2 RNA assessed as downregulation of EMT signaling by measuring E-cadherin protein expression at 10 uM in presence of olaparib by western blot analysis", "format": "functional, cell-based"}, "A2780 [18]": {"test_system": "A2780", "test": "Antiproliferative activity against human A2780 cells assessed as inhibition of cell viability measured after 48 hrs by CCK8 assay", "format": "functional, cell-based", "conditions": "A2780, 48 h"}, "SK-OV-3 [19]": {"test_system": "SK-OV-3", "test": "Increase in FHL1 protein stability in human SK-OV-3 cells at 10 uM measured after 6 to 24 hrs in presence of cycloheximide by CHX chase assay based western blot analysis", "format": "functional, cell-based", "conditions": "time 6-24 hrs"}, "A2780 [20]": {"test_system": "A2780", "test": "Potentiation of olaparib sensitivity in human A2780 cells assessed as induction of DNA damage response by measuring increase in tail moment at 10 uM measured after 48 hrs in presence of olaparib by alkaline comet assay", "format": "functional, cell-based"}, "A2780 [21]": {"test_system": "A2780", "test": "Synergistic antiproliferative activity against human A2780 cells assessed as combination index for reduction of cell viability in presence of olaparib by CCK8 assay", "format": "functional"}, "A2780 [22]": {"test_system": "A2780", "test": "Potentiation of olaparib-induced antitumor activity against shFHL1-1 RNA-transfected human A2780 cells xenografted in BALB/c mouse assessed as decrease in tumor volume at 15 mg/kg, ip co-administered with olaparib for 2 weeks", "format": "functional, organism-based"}, "A2780 [23]": {"test_system": "A2780", "test": "Potentiation of olaparib sensitivity in human A2780 cells transfected with shFHL1-2 RNA assessed as inhibition of cell migration at 10 uM measured after 24 to 48 hrs in presence of olaparib by wound healing assay", "format": "functional, cell-based", "conditions": "time 24-48 hrs"}, "A2780 [24]": {"test_system": "A2780", "test": "Downregulation of EMT signalling in human A2780 cells assessed as upregulation of E-cadherin protein expression at 10 uM by western blot analysis", "format": "functional, cell-based"}, "SK-OV-3 [25]": {"test_system": "SK-OV-3", "test": "Potentiation of olaparib sensitivity in human SK-OV-3 cells transfected with shFHL1-2 RNA assessed as inhibition of cell invasion at 10 uM measured after 48 hrs in presence of olaparib by Transwell assay", "format": "functional, cell-based"}, "SK-OV-3 [26]": {"test_system": "SK-OV-3", "test": "Potentiation of olaparib sensitivity in human SK-OV-3 cells transfected with shFLH1-1 RNA assessed as downregulation of EMT signaling by measuring vimentin protein expression at 10 uM in presence of olaparib by western blot analysis", "format": "functional, cell-based"}, "SK-OV-3 [27]": {"test_system": "SK-OV-3", "test": "Effect on FHL1 mRNA expression in human SK-OV-3 cells at 5 to 20 uM by real-time PCR analysis", "format": "functional, cell-based", "conditions": "dose 5-20 µM"}, "Mus musculus [28]": {"test_system": "Mus musculus", "test": "Potentiation of olaparib sensitivity in BALB/c mouse xenografted with shFHL1-1 RNA-transfected human A2780 cells assessed as increase in FHL1 protein expression in tumor at 15 mg/kg, ip co-administered with olaparib for 2 weeks by immunohistochemistry", "format": "functional, organism-based"}, "A2780 [29]": {"test_system": "A2780", "test": "Potentiation of olaparib sensitivity in human A2780 cells transfected with shFLH1-2 RNA assessed as downregulation of EMT signaling by measuring vimentin protein expression at 10 uM in presence of olaparib by western blot analysis", "format": "functional, cell-based"}, "A2780 [30]": {"test_system": "A2780", "test": "Inhibition of cell migration in human A2780 cells transfected with shFHL1-1 RNA at 10 uM measured after 24 to 48 hrs by wound healing assay", "format": "functional, cell-based", "conditions": "time 24-48 hrs"}, "SK-OV-3 [31]": {"test_system": "SK-OV-3", "test": "Potentiation of olaparib sensitivity in human SK-OV-3 cells assessed as downregulation of EMT signaling by measuring downregulation of N-cadherin protein expression at 10 uM in presence of olaparib by western blot analysis", "format": "functional, cell-based"}, "SK-OV-3 [32]": {"test_system": "SK-OV-3", "test": "Downregulation of EMT signalling in human SK-OV-3 cells transfected with shFHL1-2 RNA assessed as N-cadherin protein expression at 10 uM by western blot analysis", "format": "functional, cell-based"}}, "note": "Active and inactive are the calls of the source. No cut-off for these calls is given here.", "data": [{"smiles": "CC[C@]12C=CCN3CC[C@]4(C(=C(C(=O)OC)C1)Nc1ccccc14)[C@@H]32", "note": "[TABERSONINE]", "values": [{"measurement": "Activity", "setting": "[1]", "result": "Non-Toxic"}, {"measurement": "Activity", "setting": "A2780 [2]", "result": "Active"}, {"measurement": "Activity", "setting": "A2780 [3]", "result": "inactive"}, {"measurement": "Activity", "setting": "A2780 [4]", "result": "inactive"}, {"measurement": "Activity", "setting": "SK-OV-3 [5]", "result": "Active"}, {"measurement": "inhibition", "setting": "SK-OV-3 [6]", "result": "Active"}, {"measurement": "inhibition", "setting": "A2780 [7]", "result": "Active"}, {"measurement": "Activity", "setting": "SK-OV-3 [8]", "result": "Active"}, {"measurement": "Activity", "setting": "Mus musculus [9]", "result": "inactive"}, {"measurement": "Activity", "setting": "[10]", "result": "Toxic"}, {"measurement": "Activity", "setting": "A2780 [11]", "result": "inactive"}, {"measurement": "Activity", "setting": "SK-OV-3 [12]", "result": "inactive"}, {"measurement": "inhibition", "setting": "A2780 [13]", "result": "inactive"}, {"measurement": "inhibition", "setting": "A2780 [14]", "result": "inactive"}, {"measurement": "Activity", "setting": "Mus musculus [15]", "result": "Active"}, {"measurement": "inhibition", "setting": "A2780 [16]", "result": "Active"}, {"measurement": "Activity", "setting": "SK-OV-3 [17]", "result": "inactive"}, {"measurement": "IC50", "setting": "A2780 [18]", "result": 18, "unit": "µM"}, {"measurement": "Activity", "setting": "SK-OV-3 [19]", "result": "Active"}, {"measurement": "Activity", "setting": "A2780 [20]", "result": "Active"}, {"measurement": "CI", "setting": "A2780 [21]", "result": "<1"}, {"measurement": "Activity", "setting": "A2780 [22]", "result": "inactive"}, {"measurement": "Activity", "setting": "A2780 [23]", "result": "inactive"}, {"measurement": "inhibition", "setting": "A2780 [24]", "result": "Active"}, {"measurement": "Activity", "setting": "SK-OV-3 [25]", "result": "inactive"}, {"measurement": "Activity", "setting": "SK-OV-3 [26]", "result": "inactive"}, {"measurement": "Activity", "setting": "SK-OV-3 [27]", "result": "inactive"}, {"measurement": "Activity", "setting": "Mus musculus [28]", "result": "inactive"}, {"measurement": "Activity", "setting": "A2780 [29]", "result": "inactive"}, {"measurement": "inhibition", "setting": "A2780 [30]", "result": "inactive"}, {"measurement": "Activity", "setting": "SK-OV-3 [31]", "result": "Active"}, {"measurement": "inhibition", "setting": "SK-OV-3 [32]", "result": "inactive"}]}]}
